{"source": "patent US20150038447A1", "about": "“ORGAN PROTECTION, PRESERVATION AND RECOVERY” (Hibernation Therapeutics, A KF LLC, priority 2007, published 2015)", "origin": "cited, not measured here", "key": {"[1]": {"settings": "400 mg daily tablets"}, "[2]": {"settings": "in vivo"}, "anaesthetised rats": {"tested_on": "anaesthetised rats", "settings": "previous studies (Canyon and Dobson, 2004)"}, "NK(3) receptor": {"target": "T1, NK(3) receptor (Homo sapiens, UniProt P29371)", "T1 sequence (P29371 1-465)": "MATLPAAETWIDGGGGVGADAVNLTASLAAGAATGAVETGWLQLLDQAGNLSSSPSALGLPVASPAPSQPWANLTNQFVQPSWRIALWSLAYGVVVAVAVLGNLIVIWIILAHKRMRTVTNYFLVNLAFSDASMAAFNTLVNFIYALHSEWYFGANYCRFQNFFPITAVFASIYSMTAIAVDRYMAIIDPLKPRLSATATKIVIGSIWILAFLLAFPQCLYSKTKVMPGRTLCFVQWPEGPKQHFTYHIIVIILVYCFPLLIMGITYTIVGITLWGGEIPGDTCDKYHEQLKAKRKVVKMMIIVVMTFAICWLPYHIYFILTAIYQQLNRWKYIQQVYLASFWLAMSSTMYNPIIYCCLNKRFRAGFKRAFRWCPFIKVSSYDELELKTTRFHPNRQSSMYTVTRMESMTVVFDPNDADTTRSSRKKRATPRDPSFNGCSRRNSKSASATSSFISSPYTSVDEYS", "settings": "NK(1) versus NK(3)"}, "NK(2) receptor": {"target": "T2, NK(2) receptor (Homo sapiens, UniProt P21452)", "T2 sequence (P21452 1-398)": "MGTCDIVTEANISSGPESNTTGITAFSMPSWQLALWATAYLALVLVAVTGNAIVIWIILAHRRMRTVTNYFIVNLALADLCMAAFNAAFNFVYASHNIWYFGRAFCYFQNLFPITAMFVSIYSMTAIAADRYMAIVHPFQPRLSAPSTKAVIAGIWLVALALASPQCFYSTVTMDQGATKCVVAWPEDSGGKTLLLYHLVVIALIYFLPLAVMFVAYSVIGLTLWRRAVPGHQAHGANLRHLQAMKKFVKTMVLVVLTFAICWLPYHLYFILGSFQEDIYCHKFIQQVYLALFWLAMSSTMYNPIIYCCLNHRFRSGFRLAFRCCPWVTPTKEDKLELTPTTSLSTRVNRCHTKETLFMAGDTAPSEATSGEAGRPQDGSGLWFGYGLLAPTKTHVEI", "settings": "NK(1) versus NK(2)"}, "human NK(1) receptor": {"target": "human NK(1) receptor (Homo sapiens, UniProt P25103)", "sequence (P25103 whole entry)": "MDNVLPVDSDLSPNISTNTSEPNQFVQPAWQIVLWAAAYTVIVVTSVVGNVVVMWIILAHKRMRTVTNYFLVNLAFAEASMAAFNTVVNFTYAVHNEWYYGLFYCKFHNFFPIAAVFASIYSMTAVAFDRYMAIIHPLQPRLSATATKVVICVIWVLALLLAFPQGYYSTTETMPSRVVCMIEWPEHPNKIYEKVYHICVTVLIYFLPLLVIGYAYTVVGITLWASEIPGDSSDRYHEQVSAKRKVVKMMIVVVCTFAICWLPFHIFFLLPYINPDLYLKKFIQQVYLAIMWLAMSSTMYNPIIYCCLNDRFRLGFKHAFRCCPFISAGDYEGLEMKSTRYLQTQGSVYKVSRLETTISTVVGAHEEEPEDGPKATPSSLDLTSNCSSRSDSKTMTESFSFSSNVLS"}, "adenosine deaminase": {"target": "T3, adenosine deaminase (Bos taurus, UniProt P56658)", "T3 construct": "from tissue; host or cells: calf intestinal mucosa", "T3 sequence (P56658 whole entry)": "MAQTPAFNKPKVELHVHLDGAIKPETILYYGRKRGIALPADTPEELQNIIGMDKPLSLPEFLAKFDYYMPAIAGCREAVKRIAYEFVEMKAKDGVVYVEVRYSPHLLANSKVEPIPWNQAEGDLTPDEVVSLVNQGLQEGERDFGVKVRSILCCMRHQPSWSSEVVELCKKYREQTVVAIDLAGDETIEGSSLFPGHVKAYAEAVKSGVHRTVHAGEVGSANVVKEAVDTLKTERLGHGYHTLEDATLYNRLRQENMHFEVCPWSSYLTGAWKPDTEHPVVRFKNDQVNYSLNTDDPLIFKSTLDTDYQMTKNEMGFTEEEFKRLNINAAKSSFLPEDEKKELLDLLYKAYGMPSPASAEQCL", "settings": "calf intestinal mucosa; read-out: Ki (competitive inhibitor of adenosine deaminase)"}, "[3]": {"settings": "given orally and/or intravenous at 10, 25, 50, and 100 mg/kg body weight"}}, "data": [{"smiles": "OCCN(CCO)c1nc(N2CCCCC2)c2nc(N(CCO)CCO)nc(N3CCCCC3)c2n1", "note": "[Dipyridamole]", "values": [{"measurement": "plasma level", "setting": "[1]", "result": "about 0.4 μg/ml"}, {"measurement": "plasma level (concentration)", "setting": "[1]", "result": "~800", "unit": "nM"}]}, {"smiles": "CSCC[C@@H]1NC(=O)[C@H](CC(C)C)NC(=O)[C@H](CCCNC(=N)N)NC(=O)[C@H](CO)NC(=O)[C@@H]2CSSC[C@@H]3NC(=O)[C@H](CO)NC(=O)CNC(=O)[C@H]([C@@H](C)O)NC(=O)[C@H](CSSC[C@H](N)C(=O)N[C@@H](CCCCN)C(=O)NCC(=O)N[C@@H](CCCCN)C(=O)NCC(=O)N[C@@H](C)C(=O)N[C@@H](CCCCN)C(=O)N2)NC(=O)[C@H](CSSC[C@@H](C(N)=O)NC(=O)[C@H](CCCCN)NC(=O)CNC(=O)[C@H](CO)NC(=O)[C@H](CCCNC(=N)N)NC3=O)NC(=O)[C@H](CC(=O)O)NC(=O)[C@H](Cc2ccc(O)cc2)NC1=O", "note": "[Omega conotoxin MVIIA]", "values": [{"measurement": "potency as an analgesic relative to morphine", "setting": "[2]", "result": "100-1000 fold"}]}, {"smiles": "Nc1ncnc2c1ncn2[C@@H]1O[C@H](CO)[C@@H](O)[C@H]1O", "note": "[adenosine]", "values": [{"measurement": "half life in the blood", "result": "about 10 seconds"}, {"measurement": "animals that die during 30 min ischaemia from VF", "setting": "anaesthetised rats", "result": "about 50%"}]}, {"smiles": "Cc1cccc(C)c1NC(=O)C[C@H]1CCN(C(=O)c2cc(C(F)(F)F)cc(C(F)(F)F)c2)[C@@H](Cc2ccccc2)C1.O=C(O)C[C@H](O)C(=O)O", "note": "(relative stereo) [R116301, (2R-trans)-4-[1-[3,5-bis(trifluoromethyl)benzoyl]-2-(phenylmethyl)-4-piperidinyl]-N-(2,6-dimethylphenyl)-1-acetamide (S)-Hydroxybutanedioate]", "values": [{"measurement": "selectivity toward NK(3) receptor", "setting": "NK(3) receptor", "result": "over 200 fold"}, {"measurement": "selectivity toward NK(2) receptor", "setting": "NK(2) receptor", "result": "over 200 fold"}, {"measurement": "Ki", "setting": "human NK(1) receptor", "result": 0.00045, "unit": "µM"}]}, {"smiles": "NC(=O)c1ncn([C@@H]2O[C@H](CO)[C@@H](O)[C@H]2O)c1N", "note": "[Acadesine, 5-amino-4-imidazole carboxamide ribonucleoside]", "values": [{"measurement": "Ki", "setting": "adenosine deaminase", "result": 362, "unit": "µM"}, {"measurement": "safety in humans", "setting": "[3]", "result": "safe"}]}]}
